In assay [1] the target is [^3 H]-LTB4 binding to guinea pig lung membranes (Cavia porcellus, UniProt H0VYV8). The assay is described as follows: Inhibition of [^3 H]LTB4 Binding to Guinea Pig Lung Membranes. Conditions: approximately 140 pM [^3 H]-LTB4, 45 minutes at 30° C., pH 6.5, mean -log Ki, read-out: Inhibition of [^3 H]LTB4 Binding to Guinea Pig Lung Membranes pKi (converted).
In assay [2] the target is leukotriene B4 specific receptor on the membrane of human neutrophils (Homo sapiens, UniProt Q15722). The assay is described as follows: biochemical. Conditions: 0.1-0.2 nM ^3 H-LTB4, 10 minutes at 4° C., read-out: Inhibition of [^3 H]LTB4 Binding to Human Neutrophils IC50. Here is the method:
The effectiveness of compounds to inhibit the binding of leukotriene B4 to a specific receptor on the membrane of human neutrophils was measured by using an adaptation of a radio-ligand binding assay developed by Goldman and Goetzl, J. Immunol., 129, 1600 (1982). Other investigators have developed similar assays (see, e.g., Kreisle, et al., J. Exp. Med., 157, 628 (1983) and Lin, et al., Prostaglandins, 28, 837 (1984)).
Cells used in the assay were isolated by standard techniques of centrifugation on Ficoll-Hypaque, dextran 70 sedimentation and hypotonic lysis. The following procedure was used. Freshly-prepared buffy coat layers from two individuals were obtained from a local blood donor center. The cells were mixed and diluted to 484 ml with phosphate buffered saline containing heparin (10 units/ml) and heat-inactivated calf serum (5%). This was divided into 20 ml aliquots and the aliquots layered on top of Ficoll-Paque (12 ml). The material was then centrifuged at 500 g for 40 minutes at room temperature. The resulting upper layer of platelets and mononuclear cells was discarded. The lower layer containing erythrocytes and neutrophils was retained. Buffer was added (1 ml per 4 ml of lower layer) and the suspension mixed. For each milliliter of this mixture, 0.33 ml of 6% Macrodex was added. After stirring the cells were allowed to sediment for 1 hour at 37° C. The resulting erythrocyte pellet was discarded and the neutrophil enriched supernatant fluid centrifuged at 500 g for 10 minutes at 4° C. […] Subsequently, the volume was made up to 50 ml by addition of ice-cold buffer and the cells resuspended. The suspension was then centrifuged at 300 g for 10 minutes at 4° C. […] This buffer consisted of Hanks' balanced salt solution and 0.1% ovalbumin (pH 7.3).
The amount of bound ^3 H-LTB4 was then measured and compared with the amount bound in the absence of test compound. The assay was carried out in microcentrifuge tubes by adding first 10 μl test compound dissolved in DMSO, followed by adding 20 μl ^3 H-LTB4 diluted in assay buffer, and finally adding 500 μl of the cell suspension. At the end of the 10 minutes incubation, 300 μl of a mixture of dibutyl and dinonyl phthalate (7:2) were added and the tubes centrifuged for 2 minutes in a microcentrifuge. The radioactivity bound to the cell pellet was measured by scintillation spectroscopy.

pIC50: −log10 of the molar value. Where a name gives a salt, the structure may show the parent alone.

Sequence of [^3 H]-LTB4 binding to guinea pig lung membranes (H0VYV8 1-348): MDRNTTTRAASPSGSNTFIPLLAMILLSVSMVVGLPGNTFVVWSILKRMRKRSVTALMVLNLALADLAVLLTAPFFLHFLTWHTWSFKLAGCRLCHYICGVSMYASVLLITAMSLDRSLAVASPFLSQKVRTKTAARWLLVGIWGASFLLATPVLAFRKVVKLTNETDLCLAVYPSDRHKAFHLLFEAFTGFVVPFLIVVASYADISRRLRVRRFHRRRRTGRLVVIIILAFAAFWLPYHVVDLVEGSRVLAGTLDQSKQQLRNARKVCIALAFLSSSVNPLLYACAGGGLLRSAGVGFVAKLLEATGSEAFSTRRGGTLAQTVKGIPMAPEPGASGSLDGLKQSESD
Sequence of leukotriene B4 specific receptor on the membrane of human neutrophils (Q15722 whole entry): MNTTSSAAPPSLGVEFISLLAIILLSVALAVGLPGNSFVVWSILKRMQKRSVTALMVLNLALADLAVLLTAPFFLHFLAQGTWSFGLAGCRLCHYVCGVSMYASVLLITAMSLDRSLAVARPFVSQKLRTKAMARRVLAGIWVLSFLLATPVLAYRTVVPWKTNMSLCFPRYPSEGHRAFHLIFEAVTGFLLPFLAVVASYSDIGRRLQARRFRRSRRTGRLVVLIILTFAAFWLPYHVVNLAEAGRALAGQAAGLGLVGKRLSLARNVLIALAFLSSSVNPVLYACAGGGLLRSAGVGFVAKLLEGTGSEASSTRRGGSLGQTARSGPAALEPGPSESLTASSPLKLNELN

The pIC50 is the negative decadic logarithm of the IC50, by convention in mol/L. Take `CCc1cc(C(C)=O)c(O)cc1OCCCOc1ccc2ccc(OCC(=O)O)cc2c1` [Example 16, [2-[7-[3-(4-Acetyl-2-ethyl-5-hydroxyphenoxy)propoxy]naphthalenyl]oxy]acetic acid sodium salt hydrate]: the Ki in assay [1] was 117 nM. In addition, the pIC50 in assay [2] is 6.39.
On the same counts, the results for `CCCc1c(OCCCOc2cc(O)c(C(C)=O)cc2CC)c(I)cc2c1OC(C(=O)O)CC2` (centres unmarked) [Example 6, 6-iodo-8-propyl-7-[3-[4-acetyl-2-ethyl-5-hydroxyphenoxy)propoxy]-3,4-dihydro-2H-1-benzopyran-2-caroxylic acid] are 25.7 nM and 6.49.
Consider `CCCc1c(OCCCOc2cc(O)c(C(C)=O)cc2CC)ccc2c1OC(C(=O)O)CC2` (centres unmarked) [Example 1, 7-[3-(4-acetyl-2-ethyl-5-hydroxyphenoxy)propoxy]-3,4-dihydro-8-propyl-2H-1-benzopyran-2-carboxylic acid], for which the Ki in assay [1] is 8.13 nM.
Consider `CCCc1c(OCCCOc2cc(O)c(C(C)=O)cc2CC)cccc1OC(C)C(=O)O` (centres unmarked) [Example 4, 2-[3-[3-(4-acetyl-2-ethyl-5-hydroxyphenoxy)propoxy)-2-propylphenoxy]propanoic acid], for which, in assay [1], the Ki is 15.1 nM. Also, in assay [2], the pIC50 is 7.64.
On the same counts, the results for `CCc1cc(C(C)=O)c(O)cc1OCCCOc1cccc(Oc2ccccc2C(=O)O)c1` [Example 13, 2-[3-[3-(4-acetyl-2-ethyl-5-hydroxyphenoxy)propoxy]phenoxy]benzoic acid disodium salt hemihydrate] are 182 nM and 6.54.
As to `CCCc1cc(Oc2cccc(C(=O)O)c2)ccc1OCCCOc1cc(O)c(C(C)=O)cc1CC` [Example 9, 3-[3-propyl-4-[3-(4-acetyl-2-ethyl-5-hydroxyphenoxy)propoxy]phenoxy]benzoic acid disodium salt], the Ki in assay [1] was 257 nM. The pIC50 in assay [2] is 6.80.
Turning to `CCCc1c(OCCCOc2cc(O)c(C(C)=O)cc2CC)cccc1OC(CC)C(=O)O` (centres unmarked) [Example 5, 2-[3-[3-(4-acetyl-2-ethyl-5-hydroxyphenoxy)propoxy)-2-propylphenoxy]butanoic acid], the Ki in assay [1] was 13.8 nM.
Regarding `CCc1cc(C(C)=O)c(O)cc1OCCCOc1ccc(Oc2ccc(C(=O)O)cc2)cc1` [sodium salt hydrate], in assay [1], the Ki was 132 nM. Besides, in assay [2], the pIC50 was 6.71.
On to `CCc1cc(C(C)=O)c(O)cc1OCCCOc1ccc2oc3ccccc3c2c1CCC(=O)O` [Example 8, 3-[1-[2-[3-(4-acetyl-2-ethyl-5-hydroxyphenoxy)propoxy]dibenzofuran]]propanoic acid disodium salt], for which the Ki in assay [1] is 2.04 nM. The negative logarithm of the IC50 (pIC50) in assay [2] is 7.37.
The corresponding values for `CCc1cc(C(C)=O)c(O)cc1OCCCOc1cccc(Oc2cccc(C(=O)O)c2)c1` [Example 14, 3-[3-[3-(4-acetyl-2-ethyl-5-hydroxyphenoxy)propoxy]phenoxy]benzoic acid disodium salt hemihydrate] are 174 nM and 6.34.
Take `CCc1cc(C(C)=O)c(O)cc1OCCCOc1ccc(C(=O)c2cccc(C(=O)O)c2)cc1CCC(=O)O` [Example 20, 3-[1-[2-[3-(4-acetyl-2-ethyl-5-hydroxyphenoxy)propoxy]-5-(3-carboxybenzoyl)phenyl]]propanoic acid trisodium salt hydrate]: in assay [1], the Ki is 6.61 nM. Besides, the pIC50 in assay [2] is 7.34.
The corresponding values for `CCCc1c(OCCCOc2cc(O)c(C(C)=O)cc2CC)cccc1OCC(=O)O` [Example 3, 2-[2-propyl-3-[[3-(4-acetyl-2-ethyl-5-hydroxyphenoxy)proyl]oxy]phenoxy]acetic acid] are 4.79 nM and 7.17.
The corresponding values for `CCc1cc(C(C)=O)c(O)cc1OCCCOc1ccc2c(=O)c3cc(C(=O)O)ccc3oc2c1` [Example 7, 6-[3-(4-acetyl-2-ethyl-5-hydroxyphenoxy)propoxy]-9-oxo-9H-xanthene-2-carboxylic acid disodium salt sesquihydrate] are 741 nM and 6.72.
The corresponding values for `CCCc1c(OCCCOc2cc(O)c(C(C)=O)cc2CC)cccc1OCc1ccccc1C(=O)O` [Example 17, 2-[[3-[3-(4-acetyl-2-ethyl-5-hydroxyphenoxy)propoxy]-2-propylphenoxy]methyl]benzoic acid disodium salt hemihydrate] are 170 nM and 6.90.
For `CCc1cc(C(C)=O)c(O)cc1OCCCOc1ccc2c(=O)c3cc(C(=O)O)ccc3oc2c1CCC(=O)O` [Example 15, 3-[4-[7-carboxy-3-[3-(4-acetyl-2-ethyl-5-hydroxyphenoxy)propoxy]-9-oxo-9H-xanthene]]propanoic acid trisodium salt trihydrate], the Ki in assay [1] is 0.977 nM.
On to `CCCc1c(OCCCOc2cc(O)c(C(C)=O)cc2CC)cccc1Oc1ccccc1C(=O)O` [Example 19, 2-[3-[3-(4-Acetyl-2-ethyl-5-hydroxyphenoxy)propoxy]-2-propylphenoxy]benzoic acid disodium salt hydrate], for which the Ki in assay [1] is 34.7 nM. Besides, the pIC50 in assay [2] was 7.62.
On the same counts, the results for `CCCc1cc(Oc2ccc(C(=O)O)cc2)ccc1OCCCOc1cc(O)c(C(C)=O)cc1CC` [sodium salt hydrate] are 1000 nM and 6.49.
On the same counts, the results for `CCCc1c(OCCCCOc2cc(O)c(C(C)=O)cc2CC)cccc1Oc1ccccc1C(=O)O` [Example 18, 2-[3-[4-(4-Acetyl-2-ethyl-5-hydroxyphenoxy)butoxy]-2-propyl-phenoxy]benzoic acid disodium salt] are 53.7 nM and 7.03.
The corresponding values for `CCc1cc(C(C)=O)c(O)cc1OCCCOc1ccc(-c2ccccc2)cc1CCC(=O)O` [Example 11, 3-[1-[5-phenyl-2-[3-(4-acetyl-2-ethyl-5-hydroxyphenoxy)propoxy]phenyl]]propanoic acid disodium salt] are 28.2 nM and 6.94.

Values taken from US5552441A, “Leukotriene B4 antagonists” (Eli Lilly and Company, priority 1994, dated 1996).
